Measurements reported in patent US6465447B1, “Substance having steroid-like structure, process for the production thereof and antitumor agents containing the same” (Hisamitsu Pharmaceuticals Co., Inc., priority 1998, dated 2002).

Tests used:
HeLa cells [1] = assay: Tumor cell proliferation inhibitory activity, Alarmer Blue staining, HeLa cells; assay type: cell-based, human; settings: conclusion from FIGS. 4-6 (Vero, HeLa, fibroblasts)
Procedure: Here, Vero was […] derived from the kidney of a grivet, and HeLa was a tumor cell line derived from human cervix.
These cells were grown in FCS-MRM medium. The respective cells were trypsinized and washed with a FCS-free RPMI culture medium three times. The cell density was adjusted to 50,000 cells/ml prior to the test. Each 200 μl of cell suspension was dropped into a 96-well plain-bottom plate.
After one day, the culture medium was aspirated; and 200 μl of an active component solution was dropped into test wells, and 200 μl of DMSO dropped into control wells. The plate was incubated in a 5% CO2 atmosphere at 37° C. for 3 days. Ten μl of Alarmer Blue (staining agent) was added to each well, and incubation continued for additional 3 hrs. The tumor cell proliferation inhibitory activity was determined spectrophotometrically (570 and 600 nm) according to the following equation:
Eq. Proliferation inhibitory activity=100%−[(absorbance of test well)/(absorbance of control well)×100%]

HeLa cells [2] = assay: DNA cleavage examined against HeLa cells (chromatin aggregation, agarose gel electrophoresis); assay type: cell-based, human; settings: conclusion from FIGS. 7-9
Procedure: HeLa cells were prepared, adjusted to a cell density of 1×10^6 cells/ml in a φ10 cm culture dish and grown, into which 200 μl of the active fraction solution was dropped. Cells were harvested each 50 μl after 24, 48, and 72 hrs, and incubated in 400 μl of culture solution (containing Tris-EDTA, SDS and Proteinase K) in a 5% CO2 atmosphere at 37° C. overnight. NaCl was added to the cells and decomposed proteins were centrifuged; and the supernatant was precipitated in ethanol.
The precipitate was suspended in Tris-EDTA buffer containing RnaseA. After 2 hrs, it was loaded onto agarose gel. After staining with ethidium bromide, it was electrophoresed and visualized under UV irradiation.

`CC(=O)OC1CC2(C)C(C(C)/C=C/C(C)C(C)C)CCC2(C)C2CC(O)C3(O)CC(O)CC(=O)C3(C)C12` (centres unmarked) [compound (II)] was tested, and the “proliferation inhibitory activity specific to tumor cells (overall conclusion)” value (HeLa cells [1]) was “remarkable proliferation inhibitory activity specific to tumor cells” and the “induction of apoptosis in the tumor cells” value (HeLa cells [2]) was “induces apotosis”.
